Source: patent publication US8940863B2, “Selective anticancer chimeric peptides which bind neuropilin receptor” (Stella Pharma Corporation, priority 2008, dated 2015)
“Also recorded” adds a separate entry of the source. Like-named read-outs stand apart in the source and are kept apart here. One block for each compound: values may come before it. Non-standard residues stand in square brackets, D forms with d. Residues, ends and D or L forms follow the SMILES beside them. No end group written: not given here.

Key:
[1] = tested on: HN-12; test: Cell viability assay (WST-8); assay type: cell-based, human; settings: 72 hours
[2] = tested on: U251; test: Short-exposure killing of cancer cells (WST-8); assay type: cell-based, human; settings: 10 μM
[3] = tested on: U251
[4] = molecular target: human recombinant NRP1 protein (Homo sapiens, UniProt O14786); test: BIACORE binding to NRP1
Sequence of human recombinant NRP1 protein (O14786 22-923): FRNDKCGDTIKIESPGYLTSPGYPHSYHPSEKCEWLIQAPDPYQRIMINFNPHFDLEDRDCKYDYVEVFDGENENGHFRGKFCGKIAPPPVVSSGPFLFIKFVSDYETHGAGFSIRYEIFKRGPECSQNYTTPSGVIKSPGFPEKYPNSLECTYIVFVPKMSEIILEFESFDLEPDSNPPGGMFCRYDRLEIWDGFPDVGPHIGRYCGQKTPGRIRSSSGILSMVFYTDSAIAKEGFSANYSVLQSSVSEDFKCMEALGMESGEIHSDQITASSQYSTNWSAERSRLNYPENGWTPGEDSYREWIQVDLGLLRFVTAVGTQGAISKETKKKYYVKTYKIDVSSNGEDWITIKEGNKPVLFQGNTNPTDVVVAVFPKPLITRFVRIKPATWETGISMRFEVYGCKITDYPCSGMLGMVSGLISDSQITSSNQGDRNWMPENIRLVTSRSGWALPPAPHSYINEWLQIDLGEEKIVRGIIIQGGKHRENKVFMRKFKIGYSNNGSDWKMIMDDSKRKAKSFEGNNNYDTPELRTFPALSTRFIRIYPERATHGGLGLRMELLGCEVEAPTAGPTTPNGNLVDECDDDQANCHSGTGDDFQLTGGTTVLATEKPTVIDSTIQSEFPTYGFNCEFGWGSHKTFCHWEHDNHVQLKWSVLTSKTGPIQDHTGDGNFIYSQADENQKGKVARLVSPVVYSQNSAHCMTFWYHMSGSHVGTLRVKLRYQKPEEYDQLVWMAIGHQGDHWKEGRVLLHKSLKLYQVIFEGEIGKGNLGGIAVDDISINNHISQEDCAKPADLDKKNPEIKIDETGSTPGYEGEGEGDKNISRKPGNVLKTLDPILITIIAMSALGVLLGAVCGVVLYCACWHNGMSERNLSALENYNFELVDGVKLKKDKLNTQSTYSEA
Method: Based on the results of binding three-dimensional structure analysis of NRP1 and a Sema3A, a ligand thereof, partial peptide sequence which is important for binding (NYQWVPYQGRVPYPR (SEQ ID NO: 29)) was designed and chemically synthesized. By BIACORE analysis, binding affinity with human recombinant NRP1 protein was assessed.

[5] = tested on: A172; test: Cell viability assay (WST-8); assay type: cell-based; settings: 72 h
[6] = tested on: MDA-MB-231
[7] = tested on: KCCT873; test: Cell viability assay (WST-8); assay type: cell-based; settings: 72 h
[8] = tested on: BxPC-3; test: Short-exposure killing of cancer cells (WST-8); assay type: cell-based, human; settings: 10 μM
[9] = tested on: BxPC-3
[10] = tested on: PE cell (pancreatic epidermal); test: Cell viability assay (WST-8); assay type: cell-based
Text: (§1) Correlation between IC50 values was observed.

[11] = tested on: HEK293T; assay type: cell-based
[12] = tested on: WI-38; settings: 72 h
[13] = molecular target: T1, human recombinant IL4R protein (Homo sapiens, UniProt P24394); test: BIACORE binding to IL4R
T1 sequence (P24394 26-825): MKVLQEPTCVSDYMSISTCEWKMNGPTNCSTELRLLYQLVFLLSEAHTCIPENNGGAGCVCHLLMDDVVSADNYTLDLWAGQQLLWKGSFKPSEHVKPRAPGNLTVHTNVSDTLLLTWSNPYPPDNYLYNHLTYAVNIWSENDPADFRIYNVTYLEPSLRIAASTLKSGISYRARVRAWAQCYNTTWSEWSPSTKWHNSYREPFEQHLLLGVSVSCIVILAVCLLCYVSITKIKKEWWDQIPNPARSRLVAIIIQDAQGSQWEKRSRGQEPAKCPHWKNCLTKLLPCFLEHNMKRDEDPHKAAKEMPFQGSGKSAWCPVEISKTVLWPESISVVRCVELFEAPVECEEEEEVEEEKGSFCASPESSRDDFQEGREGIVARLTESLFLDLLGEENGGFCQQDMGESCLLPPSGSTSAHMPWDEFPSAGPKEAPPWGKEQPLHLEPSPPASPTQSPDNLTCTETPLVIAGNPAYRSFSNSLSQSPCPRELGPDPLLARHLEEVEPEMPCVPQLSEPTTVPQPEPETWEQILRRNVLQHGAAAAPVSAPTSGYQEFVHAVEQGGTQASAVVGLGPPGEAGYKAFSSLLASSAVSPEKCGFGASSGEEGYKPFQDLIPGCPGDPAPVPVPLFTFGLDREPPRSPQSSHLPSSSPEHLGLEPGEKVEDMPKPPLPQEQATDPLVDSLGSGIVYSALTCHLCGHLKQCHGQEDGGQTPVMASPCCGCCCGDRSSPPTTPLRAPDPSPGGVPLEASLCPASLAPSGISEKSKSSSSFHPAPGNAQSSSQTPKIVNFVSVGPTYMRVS

[14] = molecular target: EGFR (Homo sapiens, UniProt P00533); settings: Li Z et al., FASEB J 2005; read-out: dissociation constant to EGFR; cited from earlier work
[15] = tested on: DU145; test: Cell viability assay (WST-8); assay type: cell-based, human; settings: 72 hours
[16] = tested on: H322
[17] = tested on: human recombinant IL13R protein; test: BIACORE binding to IL13R
[18] = tested on: H322 lung cancer cells; test: Membrane permeabilization (calcein, confocal); assay type: cell-based, human; settings: 10 μM; for percentage of influx of medium to the cells over time (words): compared with EB-Lytic peptide
[19] = tested on: SU.86.86
[20] = tested on: BT-20; test: Annexin V assay and caspase assay; assay type: cell-based, human; settings: 5 μM, two hours
Method: BT-20 cells were treated for 2 hours at 37° C. with or without EB-lytic chimeric peptide at 5 μM. For determination of caspase activation or Annexin V-positive expression, peptide-treated cultures were simultaneously analyzed for caspase activity and propidium iodide (PI) staining using a carboxyfluorescein FLICA caspase-3&7 assay (Immunochemistry Technologies, Bloomington, Minn.), or, alternatively, for Annexin V labeling and PI staining by multiparametric flow cytometry. Furthermore, in accordance with the manufacturer's instructions, using a confocal laser scanning microscope, terminal deoxynucleotidyl transferase-dUTP nick end labeling (TUNEL) assay was conducted by MEBSTAIN Apoptosis Kit Direct (MBL).
In accordance with the method of Example 1, Annexin V assay and caspase assay were performed. […] For determination of caspase activation or Annexin V-positive expression, peptide-treated cultures were simultaneously analyzed for caspase activity and propidium iodide (PI) staining using a carboxyfluorescein FLICA caspase-3&7 assay (Immunochemistry Technologies, Bloomington, Minn.), or, alternatively, for Annexin V labeling and PI staining by multiparametric flow cytometry. The results are shown in FIG. 20A (Annexin V) and FIG. 20B (caspase activity)

[21] = tested on: human breast cancer cell line MDA-MB-231; test: Antitumor effect in MDA-MB-231 bearing mouse models; assay type: in vivo, athymic nude mice; settings: 1 mg/kg intravenously injected; from day 5
[22] = tested on: MRC-5; test: Cell viability assay (WST-8); settings: MRC-5 normal cells; 72 hours; mean (Table 2)
[23] = tested on: BT-20
[24] = tested on: LNCaP
[25] = tested on: HEK293; settings: HEK293 normal cells; 72 hours; mean (Table 2)
[26] = tested on: SK-BR-3; settings: 48 h
[27] = tested on: CFPAC-1; settings: 48 h
[28] = tested on: Panc-1; settings: 48 h
[29] = tested on: HuCCT-1; settings: 48 h
[30] = tested on: T47D; test: Cell viability assay (WST-8); assay type: cell-based, human; settings: 48 h
Text: as §1

[31] = listed as EB (H2R)-Lytic peptide

Compound: KDLLLHLKKLFREGQFNGGGKLLLKLLKKLLKLLKKK (IL13-lyticL chimeric peptide)
cell-killing effect compared with LyticL alone [1]: cell-killing effect was enhanced | contact time that sufficiently induces cell death [2]: 10 min | cell-killing effect compared with LyticL alone ([3]; U251, 72 hours): cell-killing effect was enhanced

Compound: NYQWVPYQGRVPYPR (NRP1 binding peptide) [NRP1-binding peptide]
binding affinity (BIACORE, words) [4]: binding affinity with human recombinant NRP1 protein was observed

IC50 ([6]; 72 h): 5.6 ± 0.5 µM | IC50 ([3]; 72 h): 3.7 ± 0.1 µM | IC50 ([9]; 72 h): 3.2 ± 0.4 µM
Compound: KQLIRFLKRLDRNGGGKLLLKLLKKLLKLLKKK [IL4-LyticL]
IC50 [5]: 3.8 ± 1.1 µM | cell-killing effect compared with LyticL alone ([6]; MDA-MB-231, 72 hours): cell-killing effect was enhanced | IC50 [7]: 4.6 ± 0.1 µM | contact time that sufficiently induces cell death [8]: 10 min | cell-killing effect compared with LyticL alone ([9]; BxPC-3, 72 hours): cell-killing effect was enhanced | IC50 ([10]; PE normal cells, 72 hours, Mean ± SD (Table 4), read-out: IC50): > 20 µM | IC50 ([11]; 72 h): 7.2 ± 0.7 µM | IC50 [12]: 9.8 ± 0.8 µM

Compound: KQLIRFLKRLDRN (IL4R binding peptide) [IL4R-binding peptide]
binding affinity (BIACORE, words) [13]: binding affinity with human recombinant IL4R protein was observed

Compound: YHWYGYTPQNVI [EB peptide]
Kd [14]: 0.022 µM

Compound: YHWYGYTPQNVIGGGGGRLLRRLLRRLLRK (EGFbuf sequence)
cell-killing effect compared with buf alone [15]: cell-killing effect was enhanced | cell-killing effect to H322 compared with lung normal cell line MRC-5 ([16]; 0 to 20 μM, 72 hours): cell-killing sensitiveness to cancer cells was high | cell-killing effect of chimeric peptide compared with lytic moiety alone ([16]; H322, 72 hours): cell-killing effect was enhanced

Compound: KDLLLHLKKLFREGQFN (IL13R binding peptide) [IL13R-binding peptide]
binding affinity (BIACORE, words) [17]: binding affinity with human recombinant IL13R protein was observed

Compound: CC[C@H](C)[C@H](NC(=O)[C@@H](NC(=O)[C@H](CC(N)=O)NC(=O)[C@H](CCC(N)=O)NC(=O)[C@@H]1CCCN1C(=O)[C@@H](NC(=O)[C@H](Cc1ccc(O)cc1)NC(=O)CNC(=O)[C@H](Cc1ccc(O)cc1)NC(=O)[C@H](Cc1c[nH]c2ccccc12)NC(=O)[C@H](CCCNC(=N)N)NC(=O)[C@@H](N)Cc1ccc(O)cc1)[C@@H](C)O)C(C)C)C(=O)NCC(=O)NCC(=O)NCC(=O)N[C@@H](CCCCN)C(=O)N[C@@H](CC(C)C)C(=O)N[C@H](CC(C)C)C(=O)N[C@@H](CC(C)C)C(=O)N[C@@H](CCCCN)C(=O)N[C@H](CC(C)C)C(=O)N[C@@H](CC(C)C)C(=O)N[C@H](CCCCN)C(=O)N[C@H](CCCCN)C(=O)N[C@@H](CC(C)C)C(=O)N[C@@H](CC(C)C)C(=O)N[C@@H](CCCCN)C(=O)N[C@H](CC(C)C)C(=O)N[C@@H](CC(C)C)C(=O)N[C@@H](CCCCN)C(=O)N[C@@H](CCCCN)C(=O)N[C@@H](CCCCN)C(=O)O [EB(H2R)-lytic peptide] (H-YRWYGYTPQNVIGGGKL[dL]LK[dL]L[dK][dK]LLK[dL]LKKK-OH; N-terminus and C-terminus assumed)
number of cells with the membrane disintegrated (green) over time ([18]; 0 to 20 minutes): increases in shorter time | percentage of influx of medium to the cells over time (words) [18, 31]: more rapid | percentage of influx of medium to the cells over time (words) ([18]; listed as EB(H2R)-Lytic peptide): more efficient | IC50 Ratio EB-lytic peptide/EB(H2R)-lytic peptide ([19]; SU.86.86): 1.6 | IC50 ([19]; SU.86.86 cancer cells, 72 hours, mean (Table 2)): 7.4 µM | Annexin V-positive expression (words) [20, 31]: induces Annexin V-positive expression more strongly | caspase 3,7 activation (words) [20, 31]: induces caspase 3 & 7 activity more strongly | Annexin V-positive expression (words) ([20]; listed as EB(H2R)-lytic): induced Annexin V-positive expression more strongly | caspase 3,7 activation (words) ([20]; listed as EB(H2R)-lytic): induced caspase 3,7 activation more strongly | antitumor effect [21]: in vivo antitumor effect higher; also recorded: higher antitumor effect in vivo; also recorded: sufficient antitumor effect | IC50 [22]: > 20 µM | IC50 Ratio EB-lytic peptide/EB(H2R)-lytic peptide ([23]; BT-20): 3.4 | IC50 ([23]; BT-20 cancer cells, 72 hours, mean (Table 2)): 1.9 µM | IC50 Ratio EB-lytic peptide/EB(H2R)-lytic peptide ([3]; U251): 1.4 | IC50 ([3]; U251 cancer cells, 72 hours, mean (Table 2)): 8.4 µM | IC50 Ratio EB-lytic peptide/EB(H2R)-lytic peptide ([24]; LNCaP): 2.1 | IC50 ([24]; LNCaP cancer cells, 72 hours, mean (Table 2)): 4.8 µM | IC50 Ratio EB-lytic peptide/EB(H2R)-lytic peptide ([9]; BxPC-3): 1.8 | IC50 ([9]; BxPC-3 cancer cells, 72 hours, mean (Table 2)): 6.6 µM | IC50 Ratio EB-lytic peptide/EB(H2R)-lytic peptide ([16]; H322): 2.1 | cell-killing effect compared with wild-type EGFR-binding chimeric peptide ([16]; H322, 72 hours): enhanced more | IC50 ([16]; H322 cancer cells, 72 hours, mean (Table 2)): 3.2 µM | IC50 [25]: > 20 µM

IC50 ([19]; 48 h): 7.9 µM | IC50 [26]: 8 µM | IC50 [27]: 10.6 µM | IC50 [28]: 13.1 µM | IC50 ([23]; 48 h): 10.9 µM | IC50 ([6]; 48 h): 11.5 µM | IC50 [29]: 13.6 µM | IC50 [30]: 4.1 µM | IC50 ([9]; 48 h): 12.5 µM
Compound: CC(C)C[C@H](NC(=O)[C@H](CCCCN)NC(=O)[C@@H](CC(C)C)NC(=O)[C@H](CC(C)C)NC(=O)[C@H](CCCCN)NC(=O)[C@H](CCCCN)NC(=O)[C@H](CC(C)C)NC(=O)[C@@H](CC(C)C)NC(=O)[C@@H](CCCCN)NC(=O)[C@H](CCCCN)NC(=O)[C@H](CC(C)C)NC(=O)[C@H](CC(C)C)NC(=O)[C@@H](CCCCN)NC(=O)[C@H](CC(C)C)NC(=O)[C@H](CC(C)C)NC(=O)CNC(=O)CNC(=O)[C@H](CCCNC(=N)N)NC(=O)[C@@H]1CCCN1C(=O)[C@H](Cc1ccc(O)cc1)NC(=O)[C@@H]1CCCN1C(=O)[C@@H](NC(=O)[C@H](CCCNC(=N)N)NC(=O)CNC(=O)[C@H](CCC(N)=O)NC(=O)[C@H](Cc1ccc(O)cc1)NC(=O)[C@@H]1CCCN1C(=O)[C@@H](NC(=O)[C@H](Cc1c[nH]c2ccccc12)NC(=O)[C@H](CCC(N)=O)NC(=O)[C@H](Cc1ccc(O)cc1)NC(=O)[C@@H](N)CC(N)=O)C(C)C)C(C)C)C(=O)O [Sema3A(aa363-377)-nLytic] (H-NYQWVPYQGRVPYPRGGLL[dK]LLK[dK][dL]LKKL[dL]KL-OH; N-terminus and C-terminus assumed)
IC50 ([10]; 48 h): > 50 µM | IC50 ([11]; 48 h): > 20 µM
